The text below walks through data of US12501900B2, “Heterocyclyl pyridazine as fungicidal compounds” (Bayer Aktiengesellschaft, priority 2018, dated 2025).

The nature of data set [1]: Measurement of LogP values by HPLC on reversed phase columns (EEC directive 79/831 Annex V.A8), methods [a], [b], [c]. The class given is physicochemical. The settings on record: HPLC on reversed phase column, method [a]; read-out: Log P. Summed up:
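Log P determined by reversed-phase HPLC following EEC directive 79/831 Annex V.A8. Multiple values within one method are listed joined by "+". Lambda-max taken from UV spectra over 200–400 nm at chromatographic peak maxima.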

In the next data set the test system is Alternaria brassicae. The experiment in a line: In vivo preventive test on Alternaria brassicae (leaf spot on radish or cabbage). The conditions noted are these: 144 h, 500 ppm of active ingredient, preventive spray on radish or cabbage, evaluated 6 days after inoculation, read-out: efficacy. How it is done:
Example: In Vivo Preventive Test on Alternaria brassicae (Leaf Spot on Radish or Cabbage)
(§1) • Solvent: 5% by volume of Dimethyl sulfoxide • 10% by volume of Acetone • Emulsifier: 1 μl of Tween® 80 per mg of active ingredient
(§2) The active ingredients were made soluble and homogenized in a mixture of Dimethyl sulfoxide/Acetone//Tween®80 and then diluted in water to the desired concentration.
The young plants of radish or cabbage were treated by spraying the active ingredient prepared as described above. Control plants were treated only with an aqueous solution of Acetone/Dimethyl sulfoxide/Tween® 80.
After 24 hours, the plants were contaminated by spraying the leaves with an aqueous suspension of Alternaria brassicae spores. The contaminated radish or cabbage plants were incubated for 6 days at 20° C. and at 100% relative humidity.
The test was evaluated 6 days after the inoculation. 0% means an efficacy which corresponds to that of the control plants while an efficacy of 100% means that no disease was observed.

The subject of a further data set is Botrytis cinerea. The experiment in a line: In vivo preventive test on Botrytis cinerea (grey mould). The conditions noted are these: 500 ppm of active ingredient, preventive spray on gherkin or cabbage, evaluated 4 to 5 days after inoculation, read-out: efficacy. How it is done: Example: In Vivo Preventive Test on Botrytis cinerea (Grey Mould)
as §1, §2
The young plants of gherkin or cabbage were treated by spraying the active ingredient prepared as described above. Control plants were treated only with an aqueous solution of Acetone/Dimethyl sulfoxide/Tween® 80.
After 24 hours, the plants were contaminated by spraying the leaves with an aqueous suspension of Botrytis cinerea spores. The contaminated gherkin plants were incubated for 4 to 5 days at 17° C. and at 90% relative humidity. The contaminated cabbage plants were incubated for 4 to 5 days at 20° C. and at 100% relative humidity.
The test was evaluated 4 to 5 days after the inoculation. 0% means an efficacy which corresponds to that of the control plants while an efficacy of 100% means that no disease was observed.

In another data set the test system is Pyrenophora teres. Nature of the data set: In vivo preventive test on Pyrenophora teres (net blotch on barley). The settings on record: 240 h, 500 ppm of active ingredient, preventive spray on barley, evaluated 10 days after inoculation, read-out: efficacy. How it is done:
Example: In Vivo Preventive Test on Pyrenophora teres (Net Blotch on Barley)
as §1, §2
The young plants of barley were treated by spraying the active ingredient prepared as described above. Control plants were treated only with an aqueous solution of Acetone/Dimethyl sulfoxide/Tween®80.
After 24 hours, the plants were contaminated by spraying the leaves with an aqueous suspension of Pyrenophora teres spores. The contaminated barley plants were incubated for 48 hours at 20° C. and at 100% relative humidity and then for 8 days at 20° C. and at 70-80% relative humidity.
The test was evaluated 10 days after the inoculation. 0% means an efficacy which corresponds to that of the control plants while an efficacy of 100% means that no disease was observed.

The test system of data set [2] is Septoria tritici. The experiment in a line: In vivo preventive test on Septoria tritici (leaf spot on wheat). The settings on record: Zymoseptoria tritici, in Triticum aestivum; 500 ppm of active ingredient; preventive spray on wheat; evaluated 19 days after inoculation; read-out: efficacy. The method, then:
Example: In Vivo Preventive Test on Septoria tritici (Leaf Spot on Wheat)
as §1, §2
The young plants of wheat were treated by spraying the active ingredient prepared as described above. Control plants were treated only with an aqueous solution of Acetone/Dimethyl sulfoxide/Tween®80.
After 24 hours, the plants were contaminated by spraying the leaves with an aqueous suspension of Septoria tritici spores. The contaminated wheat plants were incubated for 72 hours at 17° C. and at 100% relative humidity and then for 15 days at 20° C. and at 90% relative humidity.
The test was evaluated 19 days after the inoculation. 0% means an efficacy which corresponds to that of the control plants while an efficacy of 100% means that no disease was observed.

The next data set relates to Sphaerotheca fuliginea. The experiment in a line: In vivo preventive test on Sphaerotheca fuliginea (powdery mildew on cucurbits). The conditions noted are these: Podosphaera fuliginea, 192 h; 500 ppm of active ingredient; preventive spray on gherkin; evaluated 8 days after inoculation; read-out: efficacy. The method, then: Example: In Vivo Preventive Test on Sphaerotheca fuliginea (Powdery Mildew on Cucurbits)
as §1, §2
The young plants of gherkin were treated by spraying the active ingredient prepared as described above. Control plants were treated only with an aqueous solution of Acetone/Dimethyl sulfoxide/Tween® 80.
After 24 hours, the plants were contaminated by spraying the leaves with an aqueous suspension of Sphaerotheca fuliginea spores. The contaminated gherkin plants were incubated for 8 days at 20° C. and at 70-80% relative humidity.
The test was evaluated 8 days after the inoculation. 0% means an efficacy which corresponds to that of the control plants while an efficacy of 100% means that no disease was observed.

Data set [3] deals with Colletotrichum lindemuthianum. Nature of the data set: In vivo preventive test on Colletotrichum lindemuthianum (leaf spot on bean). The settings on record: 168 h, 500 ppm of active ingredient, preventive spray on bean, evaluated 7 days after inoculation, read-out: efficacy. The method, then: Example: In Vivo Preventive Test on Colletotrichum lindemuthianum (Leaf Spot on Bean)
as §1, §2
The young plants of bean were treated by spraying the active ingredient prepared as described above. Control plants were treated only with an aqueous solution of Acetone/Dimethyl sulfoxide/Tween® 80.
After 24 hours, the plants were contaminated by spraying the leaves with an aqueous suspension of Colletotrichum lindemuthianum spores. The contaminated bean plants were incubated for 24 hours at 20° C. and at 100% relative humidity and then for 6 days at 20° C. and at 90% relative humidity.
The test was evaluated 7 days after the inoculation. 0% means an efficacy which corresponds to that of the control plants while an efficacy of 100% means that no disease was observed.

For another data set, the system named is Alternaria alternata. Nature of the data set: Alternaria alternata in vitro cell test. The class given is cell-based. The conditions noted are these: 120 h, 20 ppm of active ingredient, liquid culture, 5 days incubation, read-out: efficacy (inhibition of fungal growth). How it is done: (§3) Example: Alternaria alternata In Vitro Cell Test • Solvent: DMSO • Culture medium: 14.6 g anhydrous D-glucose (VWR), 7.1 g Mycological Peptone (Oxoid), 1.4 g granulated Yeast Extract (Merck), QSP 1 liter • Inoculum: spores suspension Fungicides were solubilized in DMSO and the solution used to prepare the required range of concentrations. The final concentration of DMSO used in the assay was ≤1%. A spore suspension of A. alternata was prepared and diluted to the desired spore density. Fungicides were evaluated for their ability to inhibit spore germination and mycelium growth in liquid culture assay. The compounds were added in the desired concentration to the culture medium with spores. After 5 days incubation, fungi-toxicity of compounds was determined by spectrometric measurement of mycelium growth. Inhibition of fungal growth was determined by comparing the absorbance values in wells containing the fungicides with the absorbance in control wells without fungicides.

The subject of data set [4] is Colletotrichum lindemuthianum. The experiment in a line: Colletotrichum lindemuthianum in vitro cell test. Format: cell-based. The conditions noted are these: 144 h, 20 ppm of active ingredient, liquid culture, 6 days incubation, read-out: efficacy (inhibition of fungal growth). How it is done: as §3, with “Example: Colletotrichum lindemuthianum” for “Example: Alternaria alternata”, “of C. lindemuthianum” for “of A. alternata”, “inhibit spores” for “inhibit spore”, “After 6” for “After 5”

The test system of data set [5] is Septoria tritici. The experiment in a line: Septoria tritici in vitro cell test. The settings on record: Zymoseptoria tritici, 168 h; 20 ppm of active ingredient; liquid culture, 7 days incubation; read-out: efficacy (inhibition of fungal growth). The class given is cell-based. The method, then:
as §3, with “Example: Septoria tritici” for “Example: Alternaria alternata”, “g Bacteriological” for “g Mycological”, “(Oxoid), •” for “(Oxoid),”, “Inoculum: spore” for “Inoculum: spores”, “of Septoria tritici” for “of A. alternata”, “After 7” for “After 5”

Another data set is described as follows: LogP determination. Format: physicochemical. The conditions noted are these: reversed phase HPLC column; method [a].

The structures appear in SMILES notation.

A word on the inhibition: it is the percentage by which the read-out fell short of the control. Consider `CC(=O)c1cc(C2=NOCC(Cc3ccc(C)cc3C)N2)c(Oc2cccc(C(F)(F)F)c2)nn1` (racemic) [I-042, 1-[5-[rac-5-[(2,4-dimethylphenyl)methyl]-5,6-dihydro-4H-1,2,4-oxadiazin-3-yl]-6-[3-(trifluoromethyl)phenoxy]pyridazin-3-yl]ethanone], for which the chromatographic logP in data set [1] was 4.27. In addition, the pest or weed control at 500 ppm (with Alternaria brassicae; in the data set on Botrytis cinerea; in the data set with Pyrenophora teres; in the data set with Septoria tritici [2]; in the data set on Sphaerotheca fuliginea; in data set [3]) was 90 to 100% each time. Also, the inhibition at 20 ppm (in the data set with Alternaria alternata; in data set [4]) was 90 to 100% in each case.
For `Cc1ccc(CC2CON=C(c3cc(Cl)nnc3Oc3cccc(C(F)(F)F)c3)N2)c(C)c1` (racemic) [I-059, rac-3-[6-chloro-3-[3-(trifluoromethyl)phenoxy]pyridazin-4-yl]-5-[(2,4-dimethylphenyl)methyl]-5,6-dihydro-4H-1,2,4-oxadiazine], the pest or weed control at 500 ppm (in the data set on Alternaria brassicae; in the data set on Botrytis cinerea; with Pyrenophora teres; in the data set with Septoria tritici [2]; with Sphaerotheca fuliginea; in data set [3]) was 90 to 100% in each case. In addition, the inhibition at 20 ppm (in the data set on Alternaria alternata; in data set [4]; in the data set on Septoria tritici [5]) was 90 to 100% each time.
`Cc1ccc(CC2CON=C(c3c(Oc4cccc(C(F)(F)F)c4)nnc(Cl)c3-c3ccncc3)N2)c(C)c1` (racemic) [I-088, rac-3-[6-chloro-5-(4-pyridyl)-3-[3-(trifluoro-methyl)phenoxy]pyridazin-4-yl]-5-[(2,4-dimethylphenyl)methyl]-5,6-dihydro-4H-1,2,4-oxadiazine]: the chromatographic logP in [1] was 3.76. The pest or weed control at 500 ppm in the data set on Alternaria brassicae lay in the range of 90 to 100%; in the data set with Botrytis cinerea, 90 to 100%; in the data set on Pyrenophora teres, 90 to 100%; with Septoria tritici [2], 70 to 79%; in the data set on Sphaerotheca fuliginea, 90 to 100%; in [3] it was 90 to 100%. Further, the inhibition at 20 ppm (with Alternaria alternata; in data set [4]) was 90 to 100% in each case.
Consider `COC(=N)c1cc(Cl)nnc1Oc1cccc(C2CC2)c1` [25-01, methyl 6-chloro-3-(3-cyclopropylphenoxy)pyridazine-4-carboximidate], for which the chromatographic logP in the data set “LogP determination” came out at 3.08.
`COC(=N)c1cc(Cl)nnc1Oc1cccc(C(F)(F)F)c1` [25-02, methyl 6-chloro-3-[3-(trifluoromethyl)phenoxy]pyridazine-4-carboximidate] gave a chromatographic logP in “LogP determination” of 3.
The same measure, in the same setting: the value for `Cc1cc(C(N)=NOCC=Cc2ccc3c(ccn3C)c2)c(Oc2cccc(C(F)(F)F)c2)nn1` [30-01, 6-methyl-N′-[3-(1-methylindol-5-yl)allyloxy]-3-[3-(trifluoromethyl)phenoxy]pyridazine-4-carboxamidine] was 3.92.
As to `Cc1ccc(CC2CON=C(c3cc(C)nnc3Oc3cccc(Cl)c3F)N2)c(Cl)c1` (stereo not drawn) [I-302], the pest or weed control at 500 ppm (in the data set with Alternaria brassicae; in the data set on Botrytis cinerea; in the data set with Pyrenophora teres; with Septoria tritici [2]; in the data set on Sphaerotheca fuliginea; in data set [3]) was 90 to 100% each time. The inhibition at 20 ppm (in the data set on Alternaria alternata; in [4]; with Septoria tritici [5]) was 90 to 100% throughout.
